We go through two molecules from paper PMC10175918 (Communications Biology, 2023).

What all share (test): TGFα-shedding assay-based GPCR screening with chimeric Gα subunit proteins
Common to all, as to type: cell-based

Assay [1] deals with T1, 348 GPCRs (Homo sapiens, UniProt Q99679).
T1 construct: expressed in transfected cells; host or cells: HEK293A
The following applies: 10µM, Favipiravir 100μM.

Assay [2] deals with T2, 348 GPCRs (Homo sapiens, UniProt Q9NYM4).
T2 construct: expressed in transfected cells; host or cells: HEK293A
T2 sequence (Q9NYM4 17-423): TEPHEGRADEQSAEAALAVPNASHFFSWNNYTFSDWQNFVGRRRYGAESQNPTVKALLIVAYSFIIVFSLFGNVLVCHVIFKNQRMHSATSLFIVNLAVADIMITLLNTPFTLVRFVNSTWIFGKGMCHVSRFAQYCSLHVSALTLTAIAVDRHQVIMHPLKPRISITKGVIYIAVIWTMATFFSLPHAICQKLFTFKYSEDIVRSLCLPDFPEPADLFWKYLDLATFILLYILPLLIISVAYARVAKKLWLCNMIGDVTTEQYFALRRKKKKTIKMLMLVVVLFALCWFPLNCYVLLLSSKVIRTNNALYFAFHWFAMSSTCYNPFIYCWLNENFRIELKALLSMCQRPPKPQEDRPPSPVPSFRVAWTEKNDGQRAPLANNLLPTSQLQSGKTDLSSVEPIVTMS
The following applies: 10µM, Favipiravir 100μM.

Assay [3] addresses T3, 348 GPCRs (Homo sapiens, UniProt Q96LB2).
T3 construct: expressed in transfected cells; host or cells: HEK293A
The following applies: 10µM, Favipiravir 100μM.

Assay [4] has as its target T4, 348 GPCRs (Homo sapiens, UniProt P18825).
T4 construct: expressed in transfected cells; host or cells: HEK293A
T4 sequence (P18825 1-462): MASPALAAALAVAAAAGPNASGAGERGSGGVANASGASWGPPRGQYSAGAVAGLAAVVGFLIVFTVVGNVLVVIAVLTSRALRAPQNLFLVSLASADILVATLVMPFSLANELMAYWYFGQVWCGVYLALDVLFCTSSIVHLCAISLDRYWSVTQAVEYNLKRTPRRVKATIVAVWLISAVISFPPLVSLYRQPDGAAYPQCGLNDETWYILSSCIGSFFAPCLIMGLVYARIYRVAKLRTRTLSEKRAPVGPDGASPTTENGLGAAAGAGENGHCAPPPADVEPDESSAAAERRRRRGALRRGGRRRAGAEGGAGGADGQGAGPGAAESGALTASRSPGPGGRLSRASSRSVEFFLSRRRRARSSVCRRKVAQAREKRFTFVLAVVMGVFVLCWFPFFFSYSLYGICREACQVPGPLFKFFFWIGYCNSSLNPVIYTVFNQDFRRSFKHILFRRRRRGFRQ
The settings on record: 10µM.

Assay [5] has as its target 348 GPCRs (Homo sapiens, UniProt P30874). The settings on record: 10µM, Favipiravir 100μM.
Assay [6] addresses T5, 348 GPCRs (Homo sapiens, UniProt Q99680).
T5 construct: expressed in transfected cells; host or cells: HEK293A
The settings on record: 10µM, Favipiravir 100μM.

Assay [7] concerns the target T6, 348 GPCRs (Homo sapiens, UniProt P32249).
T6 construct: expressed in transfected cells; host or cells: HEK293A
The settings on record: EBI2 (G protein-coupled receptor 183 (Epstein-Barr Virus Induced Gene 2)); 10µM, Favipiravir 100μM.

Assay [8] deals with T7, 348 GPCRs (Homo sapiens, UniProt Q14831).
T7 construct: expressed in transfected cells; host or cells: HEK293A
T7 sequence (Q14831 35-915): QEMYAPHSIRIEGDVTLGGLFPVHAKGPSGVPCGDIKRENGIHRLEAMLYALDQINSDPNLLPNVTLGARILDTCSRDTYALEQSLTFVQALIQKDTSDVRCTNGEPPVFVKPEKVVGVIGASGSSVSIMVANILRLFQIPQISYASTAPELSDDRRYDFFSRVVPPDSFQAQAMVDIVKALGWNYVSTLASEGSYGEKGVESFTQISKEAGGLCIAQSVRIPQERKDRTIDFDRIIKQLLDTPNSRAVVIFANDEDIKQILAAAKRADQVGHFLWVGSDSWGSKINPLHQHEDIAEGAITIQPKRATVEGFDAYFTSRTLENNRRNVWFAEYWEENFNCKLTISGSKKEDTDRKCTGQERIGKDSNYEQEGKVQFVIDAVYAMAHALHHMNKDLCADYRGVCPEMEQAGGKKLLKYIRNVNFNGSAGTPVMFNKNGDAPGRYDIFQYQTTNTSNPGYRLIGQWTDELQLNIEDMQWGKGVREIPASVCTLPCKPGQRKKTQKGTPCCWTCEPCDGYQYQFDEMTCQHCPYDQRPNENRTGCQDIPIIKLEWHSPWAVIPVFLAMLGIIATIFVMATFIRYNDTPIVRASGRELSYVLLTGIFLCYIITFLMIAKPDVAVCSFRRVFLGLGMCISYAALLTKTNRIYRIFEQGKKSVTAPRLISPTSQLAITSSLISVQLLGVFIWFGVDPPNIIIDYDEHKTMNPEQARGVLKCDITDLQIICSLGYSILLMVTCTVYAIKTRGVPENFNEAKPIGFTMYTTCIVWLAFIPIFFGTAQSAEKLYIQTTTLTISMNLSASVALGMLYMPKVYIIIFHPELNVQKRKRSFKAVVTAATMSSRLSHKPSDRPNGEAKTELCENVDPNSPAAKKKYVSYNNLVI
The settings on record: 10µM, Favipiravir 100μM.

The target of assay [9] is T8, 348 GPCRs (Homo sapiens, UniProt O00574).
T8 construct: expressed in transfected cells; host or cells: HEK293A
T8 sequence (O00574 whole entry): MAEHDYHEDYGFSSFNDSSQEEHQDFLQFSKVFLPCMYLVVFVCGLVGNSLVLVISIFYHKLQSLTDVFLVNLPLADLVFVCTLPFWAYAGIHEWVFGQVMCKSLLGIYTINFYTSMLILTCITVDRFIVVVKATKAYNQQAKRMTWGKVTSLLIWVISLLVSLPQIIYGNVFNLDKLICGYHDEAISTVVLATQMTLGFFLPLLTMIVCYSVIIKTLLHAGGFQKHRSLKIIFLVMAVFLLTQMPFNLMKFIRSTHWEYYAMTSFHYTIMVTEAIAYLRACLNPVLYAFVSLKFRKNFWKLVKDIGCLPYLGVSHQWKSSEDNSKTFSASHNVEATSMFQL
The settings on record: 10µM.

Assay [10] deals with T9, 348 GPCRs (Homo sapiens, UniProt O14842).
T9 construct: expressed in transfected cells; host or cells: HEK293A
The settings on record: 10µM, Favipiravir 100μM.

Assay [11] addresses T10, 348 GPCRs (Homo sapiens, UniProt Q9H1C0).
T10 construct: expressed in transfected cells; host or cells: HEK293A
The following applies: 10µM, Favipiravir 100μM.

Assay [12] deals with T11, 348 GPCRs (Homo sapiens, UniProt O00222).
T11 construct: expressed in transfected cells; host or cells: HEK293A
T11 sequence (O00222 34-908): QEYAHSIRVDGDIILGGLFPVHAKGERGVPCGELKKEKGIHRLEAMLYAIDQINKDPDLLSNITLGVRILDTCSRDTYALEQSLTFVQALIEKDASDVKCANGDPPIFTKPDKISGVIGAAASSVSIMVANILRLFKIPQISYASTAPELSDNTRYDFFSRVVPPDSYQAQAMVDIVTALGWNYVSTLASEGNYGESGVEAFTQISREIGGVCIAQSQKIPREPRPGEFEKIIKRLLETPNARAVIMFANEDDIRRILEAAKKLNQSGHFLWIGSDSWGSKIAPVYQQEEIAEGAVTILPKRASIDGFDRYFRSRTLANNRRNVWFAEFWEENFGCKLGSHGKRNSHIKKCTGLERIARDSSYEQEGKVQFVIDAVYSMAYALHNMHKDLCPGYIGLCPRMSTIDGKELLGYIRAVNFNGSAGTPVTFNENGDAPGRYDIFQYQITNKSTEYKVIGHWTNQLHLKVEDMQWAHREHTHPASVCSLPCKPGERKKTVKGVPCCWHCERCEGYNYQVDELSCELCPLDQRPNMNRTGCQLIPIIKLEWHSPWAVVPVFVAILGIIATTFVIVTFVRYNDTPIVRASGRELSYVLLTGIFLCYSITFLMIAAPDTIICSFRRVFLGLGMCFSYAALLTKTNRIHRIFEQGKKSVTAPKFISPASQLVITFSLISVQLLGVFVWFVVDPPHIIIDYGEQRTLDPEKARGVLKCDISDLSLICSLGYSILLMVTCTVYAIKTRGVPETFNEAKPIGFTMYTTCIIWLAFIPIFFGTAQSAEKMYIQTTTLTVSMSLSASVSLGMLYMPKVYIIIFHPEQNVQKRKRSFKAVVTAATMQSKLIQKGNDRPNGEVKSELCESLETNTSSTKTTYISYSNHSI
The settings on record: 10µM, Favipiravir 100μM.

For assay [13], the target named is T12, 348 GPCRs (Homo sapiens, UniProt P18089).
T12 construct: expressed in transfected cells; host or cells: HEK293A
T12 sequence (P18089 1-450): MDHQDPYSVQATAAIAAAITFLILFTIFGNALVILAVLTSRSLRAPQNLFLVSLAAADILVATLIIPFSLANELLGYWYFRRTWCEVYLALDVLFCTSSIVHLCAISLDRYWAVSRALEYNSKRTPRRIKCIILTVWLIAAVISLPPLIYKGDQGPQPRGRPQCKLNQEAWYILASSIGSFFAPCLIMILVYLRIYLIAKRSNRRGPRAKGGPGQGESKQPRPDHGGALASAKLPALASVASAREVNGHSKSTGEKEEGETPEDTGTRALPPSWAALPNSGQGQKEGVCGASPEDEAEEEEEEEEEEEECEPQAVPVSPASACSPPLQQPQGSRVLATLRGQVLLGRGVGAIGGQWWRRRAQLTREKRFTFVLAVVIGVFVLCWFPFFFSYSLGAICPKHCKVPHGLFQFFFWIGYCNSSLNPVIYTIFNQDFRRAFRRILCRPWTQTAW
The settings on record: 10µM.

Assay [14] deals with T13, 348 GPCRs (Homo sapiens, UniProt O43603).
T13 construct: expressed in transfected cells; host or cells: HEK293A
T13 sequence (O43603 1-387): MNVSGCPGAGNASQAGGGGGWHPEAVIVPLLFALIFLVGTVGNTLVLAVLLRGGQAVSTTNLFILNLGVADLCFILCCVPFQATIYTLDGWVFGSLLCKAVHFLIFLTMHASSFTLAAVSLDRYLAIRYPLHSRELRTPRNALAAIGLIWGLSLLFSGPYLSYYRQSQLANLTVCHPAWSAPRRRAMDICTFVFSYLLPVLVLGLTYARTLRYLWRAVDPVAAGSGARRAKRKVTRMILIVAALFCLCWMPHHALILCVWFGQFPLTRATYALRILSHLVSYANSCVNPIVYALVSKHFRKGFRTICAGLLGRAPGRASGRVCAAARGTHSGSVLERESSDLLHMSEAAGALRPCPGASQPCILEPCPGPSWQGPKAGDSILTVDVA
The settings on record: 10µM, Favipiravir 100μM.

Like-named read-outs stand apart in the source and are kept apart here.

T1 sequence (Q99679 whole entry): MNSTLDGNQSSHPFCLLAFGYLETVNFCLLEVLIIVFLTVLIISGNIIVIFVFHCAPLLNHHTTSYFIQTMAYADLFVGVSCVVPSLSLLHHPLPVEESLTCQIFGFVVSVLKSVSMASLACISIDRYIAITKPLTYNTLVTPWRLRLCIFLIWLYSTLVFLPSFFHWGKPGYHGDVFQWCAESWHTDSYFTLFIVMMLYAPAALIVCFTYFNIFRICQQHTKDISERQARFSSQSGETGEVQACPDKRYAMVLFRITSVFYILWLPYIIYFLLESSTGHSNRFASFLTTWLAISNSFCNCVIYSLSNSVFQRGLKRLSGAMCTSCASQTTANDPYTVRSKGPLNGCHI
T5 sequence (Q99680 whole entry): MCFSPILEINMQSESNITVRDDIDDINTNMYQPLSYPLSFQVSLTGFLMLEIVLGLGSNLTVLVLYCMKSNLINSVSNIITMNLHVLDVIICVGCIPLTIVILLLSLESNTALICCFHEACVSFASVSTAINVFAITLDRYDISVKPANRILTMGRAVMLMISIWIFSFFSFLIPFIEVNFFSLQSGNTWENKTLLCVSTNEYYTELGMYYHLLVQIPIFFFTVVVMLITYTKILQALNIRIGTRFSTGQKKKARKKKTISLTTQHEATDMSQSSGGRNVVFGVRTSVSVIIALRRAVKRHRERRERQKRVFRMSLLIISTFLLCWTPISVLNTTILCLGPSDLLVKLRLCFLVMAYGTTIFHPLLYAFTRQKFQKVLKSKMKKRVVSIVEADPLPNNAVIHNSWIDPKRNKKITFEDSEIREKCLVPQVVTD
T10 sequence (Q9H1C0 whole entry): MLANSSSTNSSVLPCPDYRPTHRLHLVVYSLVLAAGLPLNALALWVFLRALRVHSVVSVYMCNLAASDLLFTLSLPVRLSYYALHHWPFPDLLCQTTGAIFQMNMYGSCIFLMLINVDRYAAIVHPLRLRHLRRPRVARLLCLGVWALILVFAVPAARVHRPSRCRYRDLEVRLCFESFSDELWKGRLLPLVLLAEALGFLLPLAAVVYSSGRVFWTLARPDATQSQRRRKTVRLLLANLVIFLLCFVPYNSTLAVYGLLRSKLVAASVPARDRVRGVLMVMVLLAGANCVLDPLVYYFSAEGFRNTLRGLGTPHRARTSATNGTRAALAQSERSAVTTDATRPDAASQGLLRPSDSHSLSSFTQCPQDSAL
T6 sequence (P32249 whole entry): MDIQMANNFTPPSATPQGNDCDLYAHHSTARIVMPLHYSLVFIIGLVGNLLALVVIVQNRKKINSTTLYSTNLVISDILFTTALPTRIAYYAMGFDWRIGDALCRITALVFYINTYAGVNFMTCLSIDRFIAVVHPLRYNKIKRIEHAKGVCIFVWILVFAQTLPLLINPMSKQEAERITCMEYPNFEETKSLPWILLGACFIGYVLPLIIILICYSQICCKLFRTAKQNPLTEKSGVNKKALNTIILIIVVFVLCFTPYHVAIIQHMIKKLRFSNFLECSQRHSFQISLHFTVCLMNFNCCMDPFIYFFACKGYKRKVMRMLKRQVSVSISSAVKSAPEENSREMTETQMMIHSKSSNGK
T3 sequence (Q96LB2 whole entry): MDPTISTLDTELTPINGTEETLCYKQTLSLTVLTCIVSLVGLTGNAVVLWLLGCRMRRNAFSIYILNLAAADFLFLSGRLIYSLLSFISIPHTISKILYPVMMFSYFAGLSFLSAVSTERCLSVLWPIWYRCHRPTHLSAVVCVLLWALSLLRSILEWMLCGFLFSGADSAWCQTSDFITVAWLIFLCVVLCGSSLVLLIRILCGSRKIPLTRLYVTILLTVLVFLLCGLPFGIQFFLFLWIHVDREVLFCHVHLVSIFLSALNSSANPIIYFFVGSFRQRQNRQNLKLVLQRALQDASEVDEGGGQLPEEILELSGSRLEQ
Chain of 348 GPCRs (Homo sapiens, UniProt P30874) (P30874 whole entry): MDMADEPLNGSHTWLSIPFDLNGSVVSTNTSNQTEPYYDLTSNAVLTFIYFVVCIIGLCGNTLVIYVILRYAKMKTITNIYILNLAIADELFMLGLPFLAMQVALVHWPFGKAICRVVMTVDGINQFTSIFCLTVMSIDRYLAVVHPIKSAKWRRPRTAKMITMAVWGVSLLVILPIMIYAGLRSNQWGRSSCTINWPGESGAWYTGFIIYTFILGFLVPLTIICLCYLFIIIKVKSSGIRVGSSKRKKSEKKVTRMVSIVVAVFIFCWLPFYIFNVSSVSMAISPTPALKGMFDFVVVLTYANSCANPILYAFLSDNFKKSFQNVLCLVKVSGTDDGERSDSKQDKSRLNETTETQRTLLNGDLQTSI

Consider `CC(C)C(=O)OC[C@H]1O[C@@H](n2ccc(NO)nc2=O)[C@H](O)[C@@H]1O` [molnupiravir], for which the activation at 100 µM on 348 GPCRs [1] (GPR21 (G Protein-Coupled Receptor 21), read-out: % GPCR activation compared to TPA) is 0.1%; on 348 GPCRs [2] (GPR83 (G Protein-Coupled Receptor 83), read-out: % GPCR activation compared to TPA), -2.02%; at 348 GPCRs [3] (MRGPRX1 (MAS-related GPR, member X1), read-out: % GPCR activation compared to TPA), -2.42%; on 348 GPCRs [6] (GPR22 (G Protein-Coupled Receptor 22), read-out: % GPCR activation compared to TPA), -2.13%; on 348 GPCRs [14] (GAL2 (galanin receptor 2), read-out: % GPCR activation compared to TPA), -6.16%. Also, the activation at 10 µM on 348 GPCRs [4] (GPCR α2C (adrenoceptor alpha 2C), read-out: % GPCR activation compared to TPA) was -6.27%; on 348 GPCRs [5] (SSTR2 (somatostatin receptor 2), read-out: % GPCR activation compared to TPA), -0.658%; at 348 GPCRs [8] (GRM7 (glutamate receptor, metabotropic 7), read-out: % GPCR activation compared to TPA), -1.87%; on 348 GPCRs [9] (GPCR CXCR6 (C-X-C motif chemokine receptor 6), read-out: % GPCR activation compared to TPA) it was 0.979%; at 348 GPCRs [10] (FFA1 (free fatty acid receptor 1), read-out: % GPCR activation compared to TPA) it was -2.86%; on 348 GPCRs [11] (LPAR5 (lysophosphatidic acid receptor 5), read-out: % GPCR activation compared to TPA), -2.73%. Besides, the activation at 10 µM on 348 GPCRs [12] (GRM8 (glutamate receptor, metabotropic 8), read-out: % GPCR activation compared to TPA) was -2.47%; on 348 GPCRs [13] (GPCR α2B (adrenoceptor alpha 2B), read-out: % GPCR activation compared to TPA), -2.53%. The “% GPCR activation compared to TPA” value on 348 GPCRs [7] is recorded as -0.8417%.

For `CC(C)OC(=O)[C@H](C)N[P@](=O)(OC[C@H]1O[C@@H](n2ccc(=O)[nH]c2=O)[C@](C)(F)[C@@H]1O)Oc1ccccc1` [sofosbuvir], the activation at 100 µM at 348 GPCRs [1] (read-out: % GPCR activation compared to TPA, GPR21 (G Protein-Coupled Receptor 21)) was 0.161%; on 348 GPCRs [2] (read-out: % GPCR activation compared to TPA, GPR83 (G Protein-Coupled Receptor 83)) it was -0.627%; on 348 GPCRs [3] (read-out: % GPCR activation compared to TPA, MRGPRX1 (MAS-related GPR, member X1)), -1.41%; on 348 GPCRs [6] (read-out: % GPCR activation compared to TPA, GPR22 (G Protein-Coupled Receptor 22)) it was 0.408%; on 348 GPCRs [14] (read-out: % GPCR activation compared to TPA, GAL2 (galanin receptor 2)), 3.27%. Also, the activation at 10 µM is -4.42% on 348 GPCRs [4] (read-out: % GPCR activation compared to TPA, GPCR α2C (adrenoceptor alpha 2C)); -1.14% at 348 GPCRs [5] (read-out: % GPCR activation compared to TPA, SSTR2 (somatostatin receptor 2)); 10.4% on 348 GPCRs [8] (read-out: % GPCR activation compared to TPA, GRM7 (glutamate receptor, metabotropic 7)); -0.824% at 348 GPCRs [9] (read-out: % GPCR activation compared to TPA, GPCR CXCR6 (C-X-C motif chemokine receptor 6)); -1.47% at 348 GPCRs [10] (read-out: % GPCR activation compared to TPA, FFA1 (free fatty acid receptor 1)); 1.1% on 348 GPCRs [11] (read-out: % GPCR activation compared to TPA, LPAR5 (lysophosphatidic acid receptor 5)). Also, the activation at 10 µM on 348 GPCRs [12] (read-out: % GPCR activation compared to TPA, GRM8 (glutamate receptor, metabotropic 8)) is -2.01%; at 348 GPCRs [13] (read-out: % GPCR activation compared to TPA, GPCR α2B (adrenoceptor alpha 2B)) it was 0.619%. Further, on 348 GPCRs [7], the “% GPCR activation compared to TPA” value was -0.7581%.
